The subject of one experiment is LS174T. Nature of the experiment: Human Tumor Xenograft Standard Pharmacological Test Procedure. In kind it is in vivo, human tumor in athymic nude mice. Conditions: days 1,5,9. From the text: Human Tumor Xenograft Standard Pharmacological Test Procedure
In general terms: In xenograft studies the graft and the host belong to different species.

Another experiment relates to COLON 26. Nature of the experiment: Murine Colon 26 Advanced, Metastatic Tumor. The class given is in vivo, murine (CD2F1 mice). The procedure:
(§1) Murine Tumor Standard Pharmacological Test Procedures
Murine Colon 26 Advanced, Metastatic Tumor
CD2F1 mice are injected i.p. with 5×10^5 tumor cells on Day 0 of the test. […]

A further experiment deals with A2780 S. Nature of the experiment: In vitro cytotoxicity, two cell line test procedure (A2780 S). The class given is cell-based. Conditions: Homo sapiens, A2780S; 48 hours exposure, sulforhodamine B. The procedure: (§2) Description of the two cell line test procedure
(§3) A2780 S and A2780 DDP cells [Biochemical and Molecular Properties of Cisplatin-resistant A2780 Cells Grown in Folinic Acid; Y. Lu, J. Hnan, and K. Scanlon, J. Biol. Chem., 263, 4891-4894, 1988.] are grown in RPMI 1640 medium containing 5% fetal calf serum, 50 μg/ml streptomycin, 50 units/ml penicillin, 50 μg/ml gentamycin, 0.03% L-glutamine, 1 nM estradiol, 1 nM testosterone, 5 μg/mlinsulin, 5 μg/ml transferrin, and 5 ng/ml selenous acid, at 37° C., in a humidified atmosphere, containing 5% CO2. Experiments are done in the same media.
(§4) Cells are plated at the concentration of 5×10^4 /ml on Day 0 of the experiment. On Day one control cells are fixed with trichloroacetic acid and 5 ten fold dilutions of tested compounds are added, in duplicates, to the remaining cells. On Day 3 (48 hours exposure to drugs) all cells are fixed with trichloroacetic acid, stained with 0.4% sulforhodamine B, and absorbency is read at 520 nm. The IC50s (concentration causing 50% inhibition) are determined for each drug.

Experiment [1] has as its system P388. Nature of the experiment: Murine P388 Leukemia. The class given is in vivo, murine (CD2F1 mice). To be noted: days 1,5,9. The procedure:
as §1
CD2F1 mice are injected i.p. with 1×10^6 tumor cells on Day 0 of the test. Drugs are administered i.p. on Days 1, 5, and 9 after the tumor implantation.

In the next experiment the test system is A2780 DDP. Nature of the experiment: In vitro cytotoxicity, two cell line test procedure (A2780 DDP). The class given is cell-based. Conditions: Homo sapiens, 48 hours exposure, sulforhodamine B, cisplatin-resistant. The procedure:
as §2, §3, §4

Experiment [2] deals with P388. Description: Murine P388 Leukemia. The class given is in vivo, murine (CD2F1 mice). Conditions: 200 mg/kg i.p., days 1,5.
Experiment [3] relates to P388. To be noted: Denny et al., Mutation Research 232: 233 (1990); cited from earlier work.
For experiment [4] the following is noted: Denny et al., Mutation Research 232: 233 (1990); cited from earlier work.

In brackets after ≈: the same amount, converted by molar mass. Counter-ions that a name gives are not always drawn.

`CN(C)CCNC(=O)c1cccn2c(=O)c3cc(-c4cccc(N)c4)ccc3nc12` [Example 13, 11H-Pyrido[2,1-b]quinazoline-6-carboxamide, 2-(3-aminophenyl)-N-[2-(dimethylamino)ethyl]-11-oxo]: the “% T/C (relative tumor growth treated/placebo)” value with LS174T (250 mg/kg i.p.) is 59 % T/C; in the experiment with LS174T (300 mg/kg i.p.) it was 44 % T/C. Further, the “% ILS” value in the experiment with COLON 26 (100 mg/kg i.p., days 5,9,13) was “+18 % ILS”; with COLON 26 (200 mg/kg i.p., days 5,9,13) it was “+24 % ILS”; in the experiment with COLON 26 (250 mg/kg i.p., days 5,9,13), “+35 % ILS”; with P388 [1] (25 mg/kg i.p.), “+4 % ILS”; in the experiment with P388 [1] (50 mg/kg i.p.), “+2 % ILS”; in the experiment with P388 [1] (100 mg/kg i.p.) it was “+20 % ILS”. For the same compound, the “% ILS” value in the experiment on P388 [1] (200 mg/kg i.p.) is “+57 % ILS”. For the same compound, the figures for the 50% inhibitory concentration (IC50) in the experiment with A2780 S and in the experiment on A2780 DDP were 0.4 µg/mL (≈ 0.996 µM) and 3.7 µg/mL (≈ 9.22 µM), respectively.
On to `CN(C)CCNC(=O)c1cccn2c(=O)c3cc(-c4cccc(-c5ccccc5)c4)ccc3nc12` [Example 15, 11H-Pyrido[2,1-b]quinazoline-6-carboxamide, 2-[1,1'-biphenyl]-3-yl-N-[2-(dimethylamino)ethyl]-11-oxo], for which the results for the IC50 in the experiment on A2780 S and with A2780 DDP were 0.6 µg/mL (≈ 1.3 µM) and 0.8 µg/mL (≈ 1.73 µM), respectively. For the same compound, the “% ILS” value with P388 [2] is -40 % ILS; in the experiment on P388 [1] (50 mg/kg i.p.), “+8 % ILS”; with P388 [1] (100 mg/kg i.p.), “+2 % ILS”.
For `CN(C)CCNC(=O)c1cccn2c(=O)c3cc(-c4cc(C(F)(F)F)cc(C(F)(F)F)c4)ccc3nc12` [Example 20, 11H-Pyrido[2,1-b]quinazoline-6-carboxamide, 2-[3,5-bis(trifluoromethyl)phenyl]-N-[2-(dimethylamino)ethyl]-11-oxo], the IC50 in the experiment with A2780 S was 3.8 µg/mL (≈ 7.27 µM); with A2780 DDP it was 3 µg/mL (≈ 5.74 µM).
Regarding `CC[C@]1(O)C[C@H]2CN(CCc3c([nH]c4ccccc34)[C@@](C(=O)OC)(c3cc4c(cc3OC)N(C=O)[C@H]3[C@@](O)(C(=O)OC)[C@H](OC(C)=O)[C@]5(CC)C=CCN6CC[C@]43[C@@H]65)C2)C1` [Vincristine, reference compound], the “% T/C (relative tumor growth treated/placebo)” value with LS174T (1.0 mg/kg i.p.) was 52 % T/C. For the same compound, in the experiment with P388 [1] (0.8 mg/kg i.p.), the “% ILS” value was “+114 % ILS”.
On to `CN(C)CCNC(=O)c1cccn2c(=O)c3cc(-c4cccc5ccccc45)ccc3nc12` [Example 17, 11H-pyrido[2,1-b)quinazoline-6-carboxamide, N-[2-(dimethylamino)ethyl]-2-(1-naphthalenyl)-11-oxo], for which the values for the IC50 with A2780 S and in the experiment with A2780 DDP were 4.6 µg/mL (≈ 10.5 µM) and 4.7 µg/mL (≈ 10.8 µM), respectively.
Taken in the same sequence, the figures for `CN(C)CCNC(=O)c1cccn2c(=O)c3cc(-c4cc5ccccc5c5ccccc45)ccc3nc12` [Example 16] were 4.1 µg/mL (≈ 8.43 µM) and 5.3 µg/mL (≈ 10.9 µM).
With `CN(C)CCNC(=O)c1cccn2c(=O)c3cc(-c4cccc(N(C)C)c4)ccc3nc12` [Example 21], the IC50 in the experiment on A2780 S was determined as 0.2 µg/mL (≈ 0.466 µM); with A2780 DDP, 0.5 µg/mL (≈ 1.16 µM).
Regarding `Nc1cccc(-c2ccc3nc4c(C(=O)NCCNCCO)cccn4c(=O)c3c2)c1` [Example 24, 11H-Pyrido [2,1-b]quinazoline-6-carboxamide, 2-(3-aminophenyl)-N-[2-[(2-hydroxyethyl)amino]ethyl]-11-oxo-trihydrochloride], the “% ILS” value in the experiment with COLON 26 (200 mg/kg i.p., days 5,9,13) is on record as “+24 % ILS”; in the experiment on COLON 26 (300 mg/kg i.p., days 5,9,13), -24 % ILS; with P388 [1] (25 mg/kg i.p.) it was “+12 % ILS”; in the experiment with P388 [1] (50 mg/kg i.p.), “+4 % ILS”; with P388 [1] (100 mg/kg i.p.), “+4 % ILS”; with P388 [1] (200 mg/kg i.p.) it was 0 % ILS. In addition, the IC50 with A2780 S was 0.6 µg/mL; with A2780 DDP, 2.1 µg/mL.
For the compound `Nc1ccccc1-c1ccc2nc3c(C(=O)NCCNCCO)cccn3c(=O)c2c1` [Example 30, 11H-Pyrido[2,1-b]quinazoline-6-carboxamide, 2-(2-aminophenyl)-N-[2-[(2-hydroxyethyl)amino]ethyl]-11-oxo-trihydrochloride], the IC50 in the experiment on A2780 S came to 4.8 µg/mL; in the experiment on A2780 DDP, 6.9 µg/mL.
On to `COc1ccc(-c2ccc3nc4c(C(=O)NCCN(C)C)cccn4c(=O)c3c2)cc1` [Example 19, 11H-Pyrido[2,1-b]quinazoline-6-carboxamide, N-[2-(dimethylamino)ethyl]-2-(4-methoxyphenyl)-11-oxo], for which the IC50 was found to be 4.3 µg/mL (≈ 10.3 µM) in the experiment with A2780 S and 3.4 µg/mL (≈ 8.16 µM) in the experiment with A2780 DDP. The results for the “% ILS” value in the experiment with P388 [1] (50 mg/kg i.p.), with P388 [1] (100 mg/kg i.p.) and in the experiment on P388 [1] (200 mg/kg i.p.) were -9 % ILS, “+4 % ILS” and “+6 % ILS”, respectively.
Turning to `CN(C)CCNC(=O)c1cccn2c(=O)c3cc(-c4ccccc4-c4ccccc4)ccc3nc12` [Example 14, 11H-Pyrido[2,1-b]quinazoline-6-carboxamide, 2-[1,1'biphenyl]-2-yl-N-[2-(dimethylamino)ethyl]-11-oxo], the IC50 in the experiment with A2780 S came out at 4.4 µg/mL (≈ 9.51 µM); with A2780 DDP it was 4.8 µg/mL (≈ 10.4 µM).
As to `CN(C)CCNC(=O)c1cccn2c(=O)c3ccccc3nc12` [I, N-[2-(dimethylamino)ethyl]-11-oxo-11H-pyrido[2,1-b]quinalzoline-6-carboxamide], the “activity in P388 mouse model” value in the experiment on P388 [3] is “inactive in a P388 mouse model”. Further, in experiment [4], the in vitro activity result is reported as “showed some in vitro activity”.
For the compound `O=C(NCCNCCO)c1cccn2c(=O)c3cc(-c4ccccc4)ccc3nc12` [Example 26, 11H-pyrido[2,1-b]quinazoline-6-carboxamide, N-[2-[(2-hydroxyethyl)amino]-ethyl]-11-oxo-2-phenyl, dihydrochloride], the IC50 in the experiment with A2780 S came out at 0.8 µg/mL; with A2780 DDP, 3.5 µg/mL.
For `CN(C)CCNC(=O)c1cccn2c(=O)c3ccc(-c4cccc(N)c4)cc3nc12` [Example 35, 11H-Pyrido[2,1-b]quinazoline-6-carboxamide, 3-(3-aminophenyl)-N-[2-(dimethylamino)ethyl]-11-oxo], in that order: 0.5 µg/mL (≈ 1.25 µM) and 0.4 µg/mL (≈ 0.996 µM).
On to `COc1cccc2c1C(=O)c1c(O)c3c(c(O)c1C2=O)C[C@@](O)(C(=O)CO)C[C@@H]3O[C@H]1C[C@H](N)[C@H](O)[C@H](C)O1` [Adriamycin, reference compound], for which the “% ILS” value in the experiment on COLON 26 (4 mg/kg i.p., days 5,9,14) is given as “+71 % ILS”.
For `CN(C)CCNC(=O)c1cccn2c(=O)c3cc(-c4cccc(C(F)(F)F)c4)ccc3nc12` [Example 18], the IC50 in the experiment on A2780 S was determined as 1.1 µg/mL (≈ 2.42 µM); in the experiment on A2780 DDP it was 4.2 µg/mL (≈ 9.24 µM).

What is called IC50 is the midpoint of a concentration-inhibition curve. A higher IC50 goes with weaker potency.
